Experiment [1] deals with Formins: CYK-1, Cdc12 and Fus1, Bn1, mDia2. More on the design: method as in Rizvi et al., 2009. The settings on record: CYK-1, Cdc12, Fus1, Bn1, mDia2; ref Rizvi et al., 2009; read-out: IC50 values for formins from a variety of species; cited from earlier work.
Experiment [2] deals with rabbit skeletal muscle myosin 2. As to the kind of experiment: actin-activated ATPase assay (NADH-linked). The settings on record: tissue purified, mixed isoforms; approximate. In kind it is biochemical. As to the method:
(§1) Two methods are primarily used to assess actomyosin function in vitro. […] In the absence of actin, myosins have very low basal ATPase rates that are activated 10–1000-fold by the addition of actin ([De La Cruz and Ostap, 2009]).
(§2) A heavy meromyosin (HMM)-like fragment of human non-muscle myosin 2A was prepared by expression in Sf9 insect cells as described ([Kengyel et al., 2010]). Cells were co-infected with a virus driving the expression of the truncated myosin heavy chain as well as one driving the expression of regulatory and essential light chains. The myosin was phosphorylated through smooth muscle myosin light chain kinase (MLCK) prior to use ([Nagy et al., 2013]). Full-length Drosophila myosin 5 ([Lu et al., 2020]), Drosophila myosin 7a ([Yang et al., 2009]) and a forced dimeric HMM-like fragment of bovine myosin 10 ([Takagi et al., 2014]) were also produced in Sf9 cells. Drosophila myosin 5 was co-expressed with Drosophila ELC and calmodulin, whereas the HMM-like fragment of myosin 10 was co-expressed with calmodulin. Skeletal muscle HMM was produced by chymotrypic digestion of full-length rabbit fast skeletal muscle myosin ([Margossian and Lowey, 1982]). […]
(§3) Actin-activated ATPase assays were carried out using an NADH-linked assay in a Cary 50 spectrophotometer as previously described ([Heissler et al., 2015]). […] Absorbance was monitored at 340 nm. […]

In experiment [3] the target is T1, human non-muscle myosin 2A (Homo sapiens, UniProt P35579).
T1 construct: A heavy meromyosin (HMM)-like fragment of human non-muscle myosin 2A; made in house; host or cells: Sf9 insect cells (baculovirus co-infection)
T1 sequence (P35579 1-1337 limits assumed): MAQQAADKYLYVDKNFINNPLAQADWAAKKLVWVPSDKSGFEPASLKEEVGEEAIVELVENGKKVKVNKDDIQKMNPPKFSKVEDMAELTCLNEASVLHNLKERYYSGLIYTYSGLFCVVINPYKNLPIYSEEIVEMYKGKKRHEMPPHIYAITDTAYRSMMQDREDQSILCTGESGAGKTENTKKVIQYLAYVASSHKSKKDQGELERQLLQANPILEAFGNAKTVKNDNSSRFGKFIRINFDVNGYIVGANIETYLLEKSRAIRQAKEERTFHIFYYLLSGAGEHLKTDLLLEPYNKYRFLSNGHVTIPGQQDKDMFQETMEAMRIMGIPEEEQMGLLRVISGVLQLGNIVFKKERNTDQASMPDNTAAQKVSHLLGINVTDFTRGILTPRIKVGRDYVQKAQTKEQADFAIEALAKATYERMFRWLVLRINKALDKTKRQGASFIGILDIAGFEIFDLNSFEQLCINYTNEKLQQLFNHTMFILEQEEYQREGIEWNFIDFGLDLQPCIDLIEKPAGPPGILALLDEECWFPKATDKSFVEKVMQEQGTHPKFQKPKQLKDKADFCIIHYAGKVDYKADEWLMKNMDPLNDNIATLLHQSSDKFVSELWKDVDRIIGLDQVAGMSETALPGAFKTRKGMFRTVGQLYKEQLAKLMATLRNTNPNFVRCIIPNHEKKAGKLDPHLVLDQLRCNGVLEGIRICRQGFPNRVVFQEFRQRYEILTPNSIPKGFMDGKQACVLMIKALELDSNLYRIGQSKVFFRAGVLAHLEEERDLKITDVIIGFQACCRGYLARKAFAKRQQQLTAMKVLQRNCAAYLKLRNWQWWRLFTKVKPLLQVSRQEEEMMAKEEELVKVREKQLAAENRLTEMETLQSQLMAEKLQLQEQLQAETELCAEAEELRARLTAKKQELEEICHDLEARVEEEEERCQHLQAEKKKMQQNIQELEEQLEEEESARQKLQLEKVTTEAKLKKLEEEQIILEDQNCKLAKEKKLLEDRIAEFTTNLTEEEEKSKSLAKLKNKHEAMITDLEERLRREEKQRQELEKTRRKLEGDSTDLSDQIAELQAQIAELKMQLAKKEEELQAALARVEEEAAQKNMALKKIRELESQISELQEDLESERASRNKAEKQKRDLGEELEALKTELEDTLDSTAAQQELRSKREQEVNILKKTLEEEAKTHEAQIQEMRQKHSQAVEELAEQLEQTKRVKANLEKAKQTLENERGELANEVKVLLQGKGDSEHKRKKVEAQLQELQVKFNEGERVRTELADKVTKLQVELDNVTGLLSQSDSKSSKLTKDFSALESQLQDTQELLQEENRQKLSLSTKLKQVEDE
T1 sequence (O14950 2-172 partner limits assumed): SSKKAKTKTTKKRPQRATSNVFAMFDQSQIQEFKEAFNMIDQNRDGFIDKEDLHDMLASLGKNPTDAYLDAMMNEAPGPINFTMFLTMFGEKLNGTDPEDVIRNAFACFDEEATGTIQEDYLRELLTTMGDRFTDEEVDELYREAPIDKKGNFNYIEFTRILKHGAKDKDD
T1 sequence (P60660 2-151 partner limits assumed): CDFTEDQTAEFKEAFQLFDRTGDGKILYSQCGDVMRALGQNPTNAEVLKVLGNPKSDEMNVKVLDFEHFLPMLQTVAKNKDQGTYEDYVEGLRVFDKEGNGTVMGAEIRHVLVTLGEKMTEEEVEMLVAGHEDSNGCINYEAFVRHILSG
As to the kind of experiment: actin-activated ATPase assay (NADH-linked). In kind it is biochemical. The settings on record: phosphorylated by MLCK; 10 µM actin, 25°C; approximate; read-out: IC50, actin-activated MgATPase activity. How it is done:
as §1, §2, §3

The subject of experiment [4] is REF52 fibroblast. As to the kind of experiment: traction force microscopy in living cells. In kind it is cell-based, rat. The settings on record: 30 μM, within 10 min. As to the method: Traction force microscopy with embedded beads was performed as described previously ([Rafiq et al., 2019]). Briefly, soft polydimethylsiloxanes CY 52-276A and CY 52-276B (Dow Corning, 0008602722) were mixed at the ratio 1:1 and Sylgard 184 crosslinker was used to tune the stiffness of the gel for proper force measurement of cells (∼95 kPa). The mixture was spin-coated onto a clean coverslip to achieve the thickness of ∼7 μm and cured for 1 h at 80°C. The surface of the gel was silanized with (3-aminopropyl)triethoxysilane for 2 h, followed by incubation of 0.04 μm FluoSpheres carboxylate-modified microspheres, dark red fluorescent (660/680) beads (Thermo Fisher Scientific, 1871942) at 1×10^6 beads/ml in a solution of 0.1 M NaHCO3 for 30 min. Before seeding the cells, the coverslips with beads were further incubated for 30 min with 10 μg/ml fibronectin, also dissolved in 0.1 M NaHCO3. Traction forces were calculated from bead displacement fields visualized by using live cell imaging as described by [Tseng et al. (2012)], and using the online ImageJ plugin (https://sites.google.com/site/qingzongtseng/tfm for plugin software details). The computation algorithm as published by [Sabass et al. (2008)] was used. The distribution of traction force magnitude was presented as a heat map (Fig. 1A), and mean magnitude values were calculated for each cell.

For experiment [5], the system named is mDia1. More on the design: method as in Rizvi et al., 2009. The following applies: actin assembly in the presence of profilin in vitro; ref Rizvi et al., 2009; read-out: Half-maximal inhibition of mDia1; cited from earlier work.
Experiment [6] deals with pure actin. More on the design: method as in Rizvi et al., 2009. The following applies: ref Rizvi et al., 2009; cited from earlier work.
Experiment [7] relates to permeabilized REF52 cells. The experiment is described as follows: ATP-dependent ventral stress fiber retraction in Triton X-100-permeabilized cells. In kind it is cell-based, rat.
Description: Detergent treatment leads to depletion of all soluble factors from the cells and, in particular, of ATP. Supplementing the medium with ATP induces the myosin 2-dependent contraction of stress fibers. […] We locally photoconverted spots along the length of ventral stress fibers, and tracked both retraction of the unconverted stress fiber ends and longitudinal movements of the photoconverted actin spots after adding ATP into the solution (Fig. 1C, left panel).
For stress fiber imaging, REF52 cells were transfected with mEos3.2-Actin expression plasmid and seeded onto a 35 mm glass bottom dish (Iwaki, 3930-035) 24 h prior to the assay.
The protocol of the cell permeabilization and cytoskeleton contractility assay has been described previously ([Tee and Bershadsky, 2016]; [Tee et al., 2015]). […] All drug remained in the buffer during the entire period of observation.
Experiment [8] relates to permeabilized HFF cells. As to the kind of experiment: ATP-induced centripetal movement of myosin 2 filaments in permeabilized cells (PIV). In kind it is cell-based, human. The settings on record: 50 μM. The text has this: (§4) We also tested inhibition of contraction of another type of contractile actomyosin structure, i.e. of the transverse arcs formed by periodically arranged myosin and actin filaments in fibroblasts ([Hu et al., 2017]). We measured the velocity of movement of transverse arcs in human foreskin fibroblast (HFF) cells plated on a circular fibronectin island ([Tee et al., 2015]). In control cells, filaments of non-muscle myosin 2 were visualized by expression of GFP-tagged myosin regulatory light chain (GFP-MRLC) localized to the transverse arcs and moved towards the cell center with an average velocity of 0.152 μm/min, as determined by particle image velocimetry (PIV) (Fig. 2A) ([Hu et al., 2017)]. […] Permeabilization of the same cells by using Triton X-100 removed G-actin and ATP. […]
(§5) Particle Image Velocimetry (PIV) analysis was used to measure average instantaneous speed of filaments of non-muscle myosin 2 visualized by expression of GFP-MRLC. […] To quantify the retraction speed of stress fiber ends, we manually selected all ends labeled by unconverted mEOS3.2-actin and arranged them into kymographs for every cell. The retraction speed for each end during imaging was calculated manually using the kymograph. The average retraction speed of stress fibers was calculated for each cell and plotted.

In experiment [9] the target is MLCK (Homo sapiens, UniProt Q15746). As to the kind of experiment: myosin light chain kinase phosphorylation of non-muscle myosin 2A (HPLC-mass spectrometry). Type of experiment: biochemical. The settings on record: 100 μM.
MLCK, sequence (Q15746 923-1914): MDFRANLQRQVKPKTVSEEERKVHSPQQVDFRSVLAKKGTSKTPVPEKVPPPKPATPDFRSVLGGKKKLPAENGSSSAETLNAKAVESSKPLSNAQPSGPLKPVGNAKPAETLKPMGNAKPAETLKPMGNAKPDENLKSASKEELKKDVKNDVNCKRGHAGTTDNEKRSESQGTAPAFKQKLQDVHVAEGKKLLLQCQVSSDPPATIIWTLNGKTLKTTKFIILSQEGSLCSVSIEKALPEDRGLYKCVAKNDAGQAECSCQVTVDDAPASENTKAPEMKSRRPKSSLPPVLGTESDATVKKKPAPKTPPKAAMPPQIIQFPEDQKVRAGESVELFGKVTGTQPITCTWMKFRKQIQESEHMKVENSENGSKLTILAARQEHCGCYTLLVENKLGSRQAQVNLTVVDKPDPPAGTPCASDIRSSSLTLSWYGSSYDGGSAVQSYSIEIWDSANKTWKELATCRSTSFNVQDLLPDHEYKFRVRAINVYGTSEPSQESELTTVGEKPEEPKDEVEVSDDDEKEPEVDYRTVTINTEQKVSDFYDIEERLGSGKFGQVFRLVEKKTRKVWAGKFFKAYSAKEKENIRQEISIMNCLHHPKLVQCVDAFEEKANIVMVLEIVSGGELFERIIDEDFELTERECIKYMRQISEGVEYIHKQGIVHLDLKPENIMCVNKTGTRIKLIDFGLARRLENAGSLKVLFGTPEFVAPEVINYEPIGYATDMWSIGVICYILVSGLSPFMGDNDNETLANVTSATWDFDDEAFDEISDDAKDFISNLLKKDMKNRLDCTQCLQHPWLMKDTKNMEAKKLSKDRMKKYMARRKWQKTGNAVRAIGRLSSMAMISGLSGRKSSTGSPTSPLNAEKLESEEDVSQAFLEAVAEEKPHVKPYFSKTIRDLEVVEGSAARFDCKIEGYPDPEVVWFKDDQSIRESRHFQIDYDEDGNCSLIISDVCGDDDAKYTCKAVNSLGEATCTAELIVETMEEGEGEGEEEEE
In experiment [10] the target is T2, bovine myosin 10 (Bos taurus, UniProt P79114).
T2 construct: a forced dimeric HMM-like fragment of bovine myosin 10; dimerisation element (forced dimer); made in house; host or cells: Sf9 cells
T2 sequence (P79114 other isoform, or with tags, fused parts or gaps): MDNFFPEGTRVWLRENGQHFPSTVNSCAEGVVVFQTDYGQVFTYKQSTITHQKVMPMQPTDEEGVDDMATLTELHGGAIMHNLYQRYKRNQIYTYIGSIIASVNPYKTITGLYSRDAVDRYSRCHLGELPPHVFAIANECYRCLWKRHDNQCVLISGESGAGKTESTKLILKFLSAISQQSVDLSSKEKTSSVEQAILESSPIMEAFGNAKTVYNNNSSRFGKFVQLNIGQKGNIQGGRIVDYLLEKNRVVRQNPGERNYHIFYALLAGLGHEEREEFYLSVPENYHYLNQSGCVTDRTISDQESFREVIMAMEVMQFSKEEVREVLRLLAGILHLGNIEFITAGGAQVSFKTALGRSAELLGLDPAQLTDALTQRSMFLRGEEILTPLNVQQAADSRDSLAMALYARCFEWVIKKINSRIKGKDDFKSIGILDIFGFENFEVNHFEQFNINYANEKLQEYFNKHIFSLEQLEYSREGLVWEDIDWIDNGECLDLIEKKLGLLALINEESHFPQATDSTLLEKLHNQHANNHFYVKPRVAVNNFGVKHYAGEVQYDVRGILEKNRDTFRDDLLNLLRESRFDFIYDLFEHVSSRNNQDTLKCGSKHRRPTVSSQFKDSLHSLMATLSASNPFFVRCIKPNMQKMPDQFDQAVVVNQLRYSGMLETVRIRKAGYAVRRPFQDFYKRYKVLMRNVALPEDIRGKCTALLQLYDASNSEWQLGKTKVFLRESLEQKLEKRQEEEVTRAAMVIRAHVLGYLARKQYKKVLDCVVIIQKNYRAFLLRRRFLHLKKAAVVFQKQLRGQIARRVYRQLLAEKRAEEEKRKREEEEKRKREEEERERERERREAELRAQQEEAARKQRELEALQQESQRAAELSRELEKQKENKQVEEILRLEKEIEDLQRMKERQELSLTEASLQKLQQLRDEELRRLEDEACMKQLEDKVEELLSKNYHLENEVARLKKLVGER
The experiment is described as follows: actin-activated ATPase assay (NADH-linked). In kind it is biochemical. The settings on record: approximate. The text has this: (§6) There are 40 myosin heavy chain genes from twelve classes in the human genome ([Berg et al., 2001]). Many, but not all of these myosins are present in other metazoan species including Drosophila ([Yamashita et al., 2000]). Although all of these myosins contain a conserved motor domain, the tail portions are very diverse, allowing the myosins to perform a plethora of cellular functions. […] The assays regarding bovine myosin 10 are particularly interesting since this myosin plays a role in filopodia initiation and formation in mammalian cells ([Kerber and Cheney, 2011]), a process that also involves formin action.
(§7) A heavy meromyosin (HMM)-like fragment of human non-muscle myosin 2A was prepared by expression in Sf9 insect cells as described ([Kengyel et al., 2010]). Cells were co-infected with a virus driving the expression of the truncated myosin heavy chain as well as one driving the expression of regulatory and essential light chains. The myosin was phosphorylated through smooth muscle myosin light chain kinase (MLCK) prior to use ([Nagy et al., 2013]). Full-length Drosophila myosin 5 ([Lu et al., 2020]), Drosophila myosin 7a ([Yang et al., 2009]) and a forced dimeric HMM-like fragment of bovine myosin 10 ([Takagi et al., 2014]) were also produced in Sf9 cells. Drosophila myosin 5 was co-expressed with Drosophila ELC and calmodulin, whereas the HMM-like fragment of myosin 10 was co-expressed with calmodulin. Skeletal muscle HMM was produced by chymotrypic digestion of full-length rabbit fast skeletal muscle myosin ([Margossian and Lowey, 1982]). Rabbit skeletal muscle actin was prepared as previously described ([Lehrer and Kerwar, 1972]).
(§8) Actin-activated ATPase assays were carried out using an NADH-linked assay in a Cary 50 spectrophotometer as previously described ([Heissler et al., 2015]). […] The final amount of DMSO added to the samples was 2%. The assay conditions were 10 µM actin, 50 mM KCl, 10 mM MOPS, 2 mM MgCl2, 0.1 mM EGTA, 1 mM ATP, 10 mM MOPS pH 7.0 at 25°C. […] Absorbance was monitored at 340 nm.

The target in experiment [11] is Drosophila myosin 5 (Drosophila melanogaster, UniProt A1Z6Z9). As to the kind of experiment: actin-activated ATPase assay (NADH-linked). In kind it is biochemical. The following applies: approximate.
Description: as §6, §7, §8

The target in experiment [12] is T3, Drosophila myosin 7a (Drosophila melanogaster, UniProt Q9V3Z6).
T3 construct: made in house; host or cells: Sf9 cells
As to the kind of experiment: actin-activated ATPase assay (NADH-linked). The following applies: approximate. In kind it is biochemical.
Description: as §6, §7, §8

Experiment [13] deals with rabbit skeletal muscle myosin 2 HMM. As to the kind of experiment: gliding actin in vitro motility assay. Type of experiment: biochemical. The text has this:
Here, skeletal muscle myosin 2 HMM is bound to a nitrocellulose-coated coverslip and its ability to translocate Rhodamine–phalloidin-labeled actin filaments observed (Table 1). […] The lack of reversibility could be due to covalent modification of myosin by SMIFH2. […] A higher drug concentration was required to achieve ∼50% of the gliding velocity than was required for similar inhibition of the actin-activated ATPase. This was also observed when blebbistatin was used to inhibit actin gliding ([Limouze et al., 2004]; [Sakamoto et al., 2005]).
The gliding actin in vitro motility assay was conducted at 30°C in 50 mM KCl, 4 mM MgCl2, 0.1 mM EGTA, 30 mM MOPS pH 7.2, 0.5% methylcellulose, 1 mM ATP, using an oxygen-savaging system consisting of 2.5 μg/ml glucose oxidase, 45 μg/ml catalase, 2.5 mg/ml glucose and […] DTT ([Sellers et al., 1993]). The rate of movement of actin filaments was determined as described previously ([Homsher et al., 1992]).

Experiment [14] relates to HFF cells. As to the kind of experiment: centripetal movement of myosin 2 filaments at transverse arcs in living cells (PIV). The settings on record: treated 45 min, 12.5, 25 or 50 μM. In kind it is cell-based, human.
Description: as §4, §5

pIC50: −log10 of the molar value. “And” between values parts separate entries of the source, which are not always exact repeats. Equal entries are not always repeated. “Also recorded” adds a separate entry of the source. Marks after values point to notes of the source that are not given here.

Regarding `O=C1NC(=S)N(c2cccc(Br)c2)C(=O)C1=Cc1ccco1` [SMIFH2], the pIC50 in [1] was 4.82 to 5.30; in experiment [2], approximately 4.40; in experiment [3], 4.30 and ~4.30; in experiment [5], approximately 4.82; in [10], 4.82 and ~4.82; in experiment [11] it was 5.70 and ~5.70. Also, in experiment [12], the pIC50 was 4.52 and ~4.52. Moreover, the “effect on traction forces exerted by cells” value in [4] is given as “inhibition of traction forces”. Also, in experiment [6], the “effect on assembly of pure actin” value is reported as “did not affect”. Also, the “inhibition of ATP-induced retraction of stress fiber ends (contractility)” value in experiment [7] (>100 μM SMIFH2) is listed as “complete inhibition”. Also, the “inhibition of ATP-induced retraction of stress fiber ends” value in experiment [7] (∼50μM SMIFH2) is on record as approximately 50%. Besides, the “ATP-induced centripetal movement of myosin 2 filaments” value in experiment [8] is “blocked centripetal movement”. Besides, the “inhibition of MLCK activity” value in experiment [9] is “no effect; also recorded: did not inhibit”. Further, the “Velocity of actin filaments” value is on record as 4.1* μm/s in experiment [13] (50 μM SMIFH2); 4.1* μm/s in experiment [13] (100 μM SMIFH2); “completely abolished; also recorded: No movement” in [13] (150 μM SMIFH2); “could not be reversed; also recorded: No movement” in experiment [13] (150 μM SMIFH2 followed by washout); “No movement” in [13] (200 μM SMIFH2). In addition, the “velocity of centripetal movement of transverse arcs (myosin 2 filaments)” value in [14] was “decreased in dose-dependent manner”.
Take `Cc1ccc2c(c1)C(=O)[C@]1(O)CCN(c3ccc(N)cc3)C1=N2` [pAB, para-aminoblebbistatin]: the “inhibition of ATP-induced retraction of stress fiber ends (contractility)” value in experiment [7] (100 μM pAB) is recorded as “complete inhibition”.

(Values after article PMC8121067 (Journal of Cell Science, 2021).)
